The text below walks through data of patent publication US20260327217A1, “THIAZOLE DERIVATIVES AS TAU AGGREGATION INHIBITORS” (WisTa Laboratories Ltd., priority 2022, published 2026).

pEC50: −log10 of the molar value. Entries after “also recorded” stand apart in the source; their conditions may differ.

Assay [1] deals with T1, dGAE (Homo sapiens, UniProt P10636).
T1 construct: HMT or Compound 9 added
The experiment in a line: solution-phase sandwich ELISA of dGAE assembly (scAb epitope occlusion). Format: biochemical. Particulars: 100 μM dGAE, 500 μM inhibitor, 24 h assembly. The protocol: Recombinant dGAE was produced in a bacterial expression system and assembled in the presence of 10 mM DTT by incubation at 37° C. with agitation for 24 h, as described previously. For testing the pharmacological activity, assembly reactions were performed with 100 μM dGAE and 500 μM tau aggregation inhibitor (Compound 9 or HMT) in Protein Lobind tubes (Eppendorf). Compound 9 was dissolved in DMSO (final 0.5%) and HMT in 10 mM phosphate buffer (PB) supplemented with 10 mM DTT. Control tubes with dGAE+DTT in PB and dGAE+DTT in 0.5% DMSO were also set up to allow for comparison of the extent of aggregation. Following a 24 h assembly reaction, the contents from each tube were mixed by pipetting and samples removed for the immunodetection of exposed epitopes using a solution-phase sandwich ELISA.
Ninety-six well Nunc Maxisorp plates were pre-coated with mAb 423 (10 μg/ml), which specifically recognises tau that is C-terminally truncated at Glu391 in the Pronase-resistant PHF core, washed three times with PBS containing 0.1% Tween 20 (PBST) and then blocked with 2% dried milk (Marvel) in PBS. Doubling dilutions of dGAE assembly samples were added from starting concentrations of 10 μg/ml in PBS and incubated for 1 h at 37° C. Bound tau was then detected using scAbs (10 μg/ml) and incubated for 1 h at 37° C. Anti-human C kappa HRP-conjugated secondary antibody was diluted 1:1,000 in 2% dried milk in PBS and incubated for 1 h at 37° C. Pierce 1-Step Ultra TMB-ELISA Substrate Solution was used to develop the reaction which was subsequently stopped with the addition of 1 M H2SO4. Absorbance was measured at 450 nm.

In assay [2] the target is T2, full-length tau (T40; htau40 isoform) / truncated tau (12-kDa fragment) in 3T6 fibroblast cells (Homo sapiens, UniProt P10636).
T2 construct: fibroblast cells (3T6) express full-length tau; PHF-core tau fragment (12-kDa fragment); expressed in transfected cells; host or cells: 3T6 fibroblast cells
T2 sequence (P10636 1-441 isoform P10636-8): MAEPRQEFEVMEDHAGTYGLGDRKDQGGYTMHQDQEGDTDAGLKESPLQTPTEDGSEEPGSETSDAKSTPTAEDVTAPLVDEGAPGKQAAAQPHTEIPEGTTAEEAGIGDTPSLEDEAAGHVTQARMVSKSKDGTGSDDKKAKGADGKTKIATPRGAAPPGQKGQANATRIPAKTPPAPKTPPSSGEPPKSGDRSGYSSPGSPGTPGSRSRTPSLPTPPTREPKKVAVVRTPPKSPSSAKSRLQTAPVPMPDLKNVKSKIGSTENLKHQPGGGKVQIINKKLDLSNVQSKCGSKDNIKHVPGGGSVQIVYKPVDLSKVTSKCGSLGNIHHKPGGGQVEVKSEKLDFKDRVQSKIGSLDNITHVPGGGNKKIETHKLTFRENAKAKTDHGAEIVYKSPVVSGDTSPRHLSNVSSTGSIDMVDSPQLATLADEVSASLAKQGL
Conditions: previously reported [4, 13]; read-out: EC50 in the cell assay; cited from earlier work.

T1 sequence (P10636 614-708): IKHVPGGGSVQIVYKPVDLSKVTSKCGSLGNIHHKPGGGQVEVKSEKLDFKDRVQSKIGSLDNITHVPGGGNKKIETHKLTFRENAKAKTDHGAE

Take `CN(C)c1ccc2c(c1)Sc1cc(N(C)C)ccc1N2` [HMT, Hydromethylthionine, reference compound]: the “assembly-dependent occlusion of epitopes” value in assay [1] (CA4, CE2, 1G2 and 1D12 epitopes) is listed as “assembly-dependent occlusion of these epitopes did not occur”. In addition, in assay [1] (scAb 1G2), the “1G2 epitope availability / immunoreactivity” value is given as “remained partially occluded”. Besides, in assay [1] (scAb CE2), the “CE2 epitope availability / immunoreactivity” value is “became more available in the HMT-treated sample than in the soluble pre-assembly sample; also recorded: prevented the conformational changes in the CE2 epitope responsible for early loss of immunoreactivity”. Also, the pEC50 in assay [2] is 6.22.
